In US9302999B2, “Substituted triazoles as herbicides” (E. I. DU PONT DE NEMOURS AND COMPANY, priority 2012, dated 2016):

Assays:
Type in all cases: in vivo
[1] = test system: lambsquarters (Chenopodium album); experiment: Test F pre-/postemergence: lambsquarters; conditions: Preemergence
Description: (§1) Seeds of plant species selected from corn (Zea mays), soybean (Glycine max), velvetleaf (Abutilon theophrasti), lambsquarters (Chenopodium album), poinsettia, wild (wild poinsettia, Euphorbia heterophylla), pigweed, palmer (palmer pigweed, Amaranthus palmeri), waterhemp (common waterhemp, Amaranthus rudis), surinam grass (Brachiaria decumbens), crabgrass, Brazil (Brazilian crabgrass, Digitaria horizontalis), panicum, fall (fall panicum Panicum dichotomiflorum), crabgrass, large (large crabgrass, Digitaria sanguinalis), foxtail, giant (giant foxtail, Setaria faberii), foxtail, green (green foxtail Setaria viridis), goosegrass (Eleusine indica), ragweed (common ragweed, Ambrosia elatior), barnyardgrass (Echinochloa crus-galli), sandbur (southern sandbur, Cenchrus echinatus), arrowleaf sida (Sida rhombifolia), ryegrass, Italian (Italian ryegrass, Lolium multiflorum), dayflower, VA (Virginia (VA) dayflower, Commelina virginica), field bindweed (Convolvulus arvensis), cocklebur (common cocklebur, Xanthium strumarium), morningglory (Ipomoea coccinea), nightshade (eastern black nightshade, Solanum ptycanthum), kochia (Kochia scoparia), nutsedge, yellow (yellow nutsedge, Cyperus esculentus), johnsongrass (Sorghum halepense), smartweed (ladysthumb smartweed, Polygonum persicaria), and beggarticks (hairy beggarticks, Bidens pilosa), were planted into a silt loam soil and treated preemergence with test chemicals formulated in a non-phytotoxic solvent mixture which included a surfactant. At the same time, plants selected from these crop and weed species and also pigweed (Amaranthus retroflexus), waterhemp_RES1 (ALS/Triazine resistant common waterhemp, Amaranthus rudis) and waterhemp_RES2 (ALS/HPPD resistant common waterhemp, Amaranthus rudis) were planted in pots containing a planting medium comprising spaghnum peat moss, vermiculite, wetting agent and starter nutrients treated with postemergence applications of some of the test chemicals formulated in the same manner. Plants ranged in height from 2 to 18 cm for postemergence treatments (1- to 4-leaf stage).
(§2) Treated plants and controls were maintained in a greenhouse for 14 to 21 days, after which time all species were compared to controls and visually evaluated. Plant response ratings, summarized in Table E, are based on a scale of 0 to 100 where 0 is no effect and 100 is complete control. A dash (-) response means no test result.

[2] = test system: surinam grass (Brachiaria decumbens); experiment: Test F pre-/postemergence: surinam grass; conditions: Preemergence
Description: as §1, §2

[3] = test system: field bindweed (Convolvulus arvensis); experiment: Test F pre-/postemergence: field bindweed
Description: as §1, §2

[4] = test system: dayflower, VA (Virginia (VA) dayflower, Commelina virginica); experiment: Test F pre-/postemergence: dayflower, VA
Description: as §1, §2

[5] = test system: barnyardgrass (Echinochloa crus-galli); experiment: Test F pre-/postemergence: barnyardgrass
Description: as §1, §2

[6] = 16 g ai/ha, scale 0 to 100 (0 no effect, 100 complete control)
[7] = 31 g ai/ha, scale 0 to 100 (0 no effect, 100 complete control)
[8] = Preemergence, 16 g ai/ha, scale 0 to 100 (0 no effect, 100 complete control)
[9] = Preemergence, 31 g ai/ha, scale 0 to 100 (0 no effect, 100 complete control)
[10] = Preemergence, 62 g ai/ha, scale 0 to 100
[11] = Preemergence, 125 g ai/ha, scale 0 to 100
[12] = Postemergence, 8 g ai/ha, scale 0 to 100
[13] = Postemergence, 16 g ai/ha, scale 0 to 100
[14] = Postemergence, 62 g ai/ha, scale 0 to 100
[15] = Postemergence, 125 g ai/ha, scale 0 to 100
[16] = Postemergence, 31 g ai/ha, scale 0 to 100
[17] = Preemergence, 250 g ai/ha, scale 0 to 100

| Structure (SMILES) | Plant response rating, Lambsquarters [1, 6] | Plant response rating, Lambsquarters [1, 7] | Plant response rating, Lambsquarters ([1]; 62 g ai/ha, scale 0 to 100) | Plant response rating, Lambsquarters ([1]; 125 g ai/ha, scale 0 to 100) | Plant response rating, Surinam Grass [2, 6] | Plant response rating, Surinam Grass [2, 7] | Plant response rating, Surinam Grass ([2]; 125 g ai/ha, scale 0 to 100) | Plant response rating, Field Bindweed [3, 8] | Plant response rating, Field Bindweed [3, 9] | Plant response rating, Field Bindweed [3, 10] | Plant response rating, Field Bindweed [3, 11] | Plant response rating, Dayflower, VA [4, 8] | Plant response rating, Dayflower, VA [4, 9] | Plant response rating, Dayflower, VA [4, 10] | Plant response rating, Dayflower, VA [4, 11] | Plant response rating, Barnyardgrass [5, 8] | Plant response rating, Barnyardgrass [5, 9] | Plant response rating, Barnyardgrass [5, 10] | Plant response rating, Barnyardgrass [5, 11] | further results |
| --- | --- | --- | --- | --- | --- | --- | --- | --- | --- | --- | --- | --- | --- | --- | --- | --- | --- | --- | --- | --- |
| Fc1ccc(-n2nc(Cc3ccnc(C(F)(F)F)c3)c(OCC(F)(F)F)n2)cc1 [Compound 142] | 0 | 65 | 98 | 98 | 5 | 5 | 60 | 20 | 50 | 75 | 98 | 0 | 5 | 50 | 70 | 0 | 5 | 30 | 80 | – |
| Cc1nn(-c2ccc(F)c(F)c2)nc1Oc1ccnc(C(F)(F)F)c1 [Compound 145] | – | – | – | – | – | – | – | – | – | – | – | – | – | – | – | – | – | – | – | Plant response rating, Field Bindweed [3, 12]: 50; Plant response rating, Field Bindweed [3, 13]: 60; Plant response rating, Field Bindweed [3, 14]: 70; Plant response rating, Field Bindweed [3, 15]: 75; Plant response rating, Dayflower, VA [4, 12]: 15; Plant response rating, Dayflower, VA [4, 13]: 20; Plant response rating, Dayflower, VA [4, 16]: 50; Plant response rating, Dayflower, VA [4, 14]: 60; Plant response rating, Dayflower, VA [4, 15]: 70; Plant response rating, Barnyardgrass [5, 12]: 20; Plant response rating, Barnyardgrass [5, 13]: 20; Plant response rating, Barnyardgrass [5, 16]: 30; Plant response rating, Barnyardgrass [5, 14]: 30; Plant response rating, Barnyardgrass [5, 15]: 40 |
| CCCc1nn(-c2ccc(F)cc2)nc1Cc1ccnc(C(F)(F)F)c1 [Compound 153] | 0 | 65 | 98 | 98 | 0 | 5 | 75 | 5 | 65 | 65 | 100 | 5 | 10 | 40 | 80 | 5 | 10 | 10 | 75 | Plant response rating, Lambsquarters ([1]; 250 g ai/ha, scale 0 to 100): 98; Plant response rating, Surinam Grass ([2]; 250 g ai/ha, scale 0 to 100): 98; Plant response rating, Field Bindweed [3, 17]: 100; Plant response rating, Dayflower, VA [4, 17]: 95; Plant response rating, Barnyardgrass [5, 17]: 100 |
